In US20220332700A1, “NOVEL APOPTOSIS SIGNAL-REGULATING KINASE 1 INHIBITORS” (MANKIND PHARMA LTD, priority 2019, published 2022):

What follows are compounds tested against T1, recombinant ASK1 (Homo sapiens, UniProt Q99683) (assay: ASK1 Biochemical Assay (HTRF KinEASE-STK S3)). Conditions: ATP 100 μM; read-out: Biochemical Assay IC50.
T1 construct: purchased Carna Biosciences
Experimental: ASK1 biochemical assay was standardized using recombinant ASK1 (Carna Biosciences), substrate and detection reagents from Cisbio HRTF KinEASE-STK S3 kit. Enzyme concentration, ATP, biotinylated STK substrate and STK antibodies were titrated for enzyme assay. Assay was carried out in ASK1 kinase buffer, 10 mM MOPS pH-7, 10 mM Mg-acetate, 1 mM DTT, 0.025% NP40, 1.5% glycerol and 0.05% BSA. DMSO was used as vehicle control with a final concentration of 1%. A 5 ng of ASK1 enzyme was incubated with compound for 1 hour at 23° C. on a shaker at 100rpm. ATP and biotin substrate was added at a final concentration of 100 μM and 1 μM and incubated for 3 hours at 23° C. on a shaker at 100rpm. […] Delta F ratios were calculated from data obtained at excitation (337 nm) and emission wavelengths (665 nm and 620-10 nm). Substrate blank values was considered as negative control. Values from negative control was substrated from vehicle control and compound treated wells. Enzyme inhibition by compounds were calculated from vehicle controls, which represent uninterrupted enzyme's activity.

T1 sequence (Q99683 654-971 limits assumed): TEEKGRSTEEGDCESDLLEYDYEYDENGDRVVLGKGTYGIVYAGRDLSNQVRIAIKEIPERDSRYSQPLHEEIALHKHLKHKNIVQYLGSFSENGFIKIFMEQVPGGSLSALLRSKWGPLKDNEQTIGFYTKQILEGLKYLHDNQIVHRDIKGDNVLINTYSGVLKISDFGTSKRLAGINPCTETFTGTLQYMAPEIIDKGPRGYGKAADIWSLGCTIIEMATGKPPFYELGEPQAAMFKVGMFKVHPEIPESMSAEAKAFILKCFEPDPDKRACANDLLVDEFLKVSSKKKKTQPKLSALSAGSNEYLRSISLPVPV

SMILES | IC50
CC(C)n1cnnc1-c1cccc(N2CCN(c3ccc(O)cc3)C2=O)n1 [Example 1030, 1-(4-hydroxyphenyl)-3-(6-(4-isopropyl-4H-1,2,4-triazol-3-yl)pyridin-2-yl)imidazolidin-2-one] | > 1000 nM
COc1cc(C)c(S(C)(=O)=O)cc1N1CCN(c2cccc(-c3nncn3C(C)C)n2)C1=O [Example 1031, 1-(6-(4-isopropyl-4H-1,2,4-triazol-3-yl)pyridin-2-yl)-3-(2-methoxy-4-methyl-5-(methylsulfonyl)phenyl)imidazolidin-2-one] | > 1000 nM
CC(C)n1cnnc1-c1cccc(N2CCN(c3ccc(C(F)(F)F)cc3)C2=O)n1 [Example 1033, 1-(4-(trifluoromethyl)phenyl)-3-(6-(4-isopropyl-4H-1,2,4-triazol-3-yl)pyridin-2-yl)imidazolidin-2-one] | > 100 nM
Cc1cc(S(C)(=O)=O)ccc1N1CCN(c2cccc(-c3nncn3C(C)C)n2)C1=O [Example 1042, 1-(6-(4-isopropyl-4H-1,2,4-triazol-3-yl)pyridin-2-yl)-3-(2-methyl-4-(methylsulfonyl)phenyl)imidazolidin-2-one] | > 100 nM
CC(C)n1cnnc1-c1cccc(N2CCN(c3ccc4nc(NC5CC5)sc4c3)C2=O)n1 [Example 1046, N-cyclopropyl-6-(3-(6-(4-isopropyl-4H-1,2,4-triazol-3-yl)pyridin-2-yl)-2-oxoimidazolidin-1-yl)benzo[d]thiazol-2-aminium 2,2,2-trifluoroacetate] | > 100 nM
CC(C)n1cnnc1-c1cccc(N2CCN(c3ccc(S(C)(=O)=O)c(N4CCCC4)c3)C2=O)n1 [Example 1058, 1-(6-(4-isopropyl-4H-1,2,4-triazol-3-yl)pyridin-2-yl)-3-(4-(methylsulfonyl)-3-(pyrrolidin-1-yl)phenyl)imidazolidin-2-one] | > 100 nM
CC(C)c1cc(N2CCN(c3cccc(-c4nncn4C(C)C)n3)C2=O)ccc1S(C)(=O)=O [Example 1062, 1-(3-isopropyl-4-(methylsulfonyl)phenyl)-3-(6-(4-isopropyl-4H-1,2,4-triazol-3-yl)pyridin-2-yl)imidazolidin-2-one] | > 1000 nM
CC(C)n1cnnc1-c1ccc(N2CCN(c3ccc(S(C)(=O)=O)cc3)C2=O)nc1 [Example 1064, 1-(5-(4-isopropyl-4H-1,2,4-triazol-3-yl)pyridin-2-yl)-3-(4-(methylsulfonyl)phenyl)imidazolidin-2-one] | > 100 nM
CC(C)n1cnnc1-c1cccc(N2CCN(c3ccc(S(C)(=O)=O)cc3)C2=O)n1 [Example 1065, 1-(6-(4-isopropyl-4H-1,2,4-triazol-3-yl)pyridin-2-yl)-3-(4-(methylsulfonyl)phenyl)imidazolidin-2-one] | > 1000 nM
CC(C)n1cnnc1-c1cccc(N2CCN(c3ccc(N4CCC(O)CC4)nc3)C2=O)n1 [Example 1072, 1-(6-(4-hydroxypiperidin-1-yl)pyridin-3-yl)-3-(6-(4-isopropyl-4H-1,2,4-triazol-3-yl)pyridin-2-yl)imidazolidin-2-one] | > 100 nM
CC(c1ccc(N2CCOCC2)cc1)N1CCN(c2cccc(-c3nncn3C(C)C)n2)C1=O (centres unmarked) [Example 1111, 1-(6-(4-isopropyl-4H-1,2,4-triazol-3-yl)pyridin-2-yl)-3-(1-(4-morpholinophenyl)ethyl)imidazolidin-2-one] | < 100 nM
COCCCNC(=O)c1ccc(N2CCN(c3cccc(-c4nncn4C(C)C)n3)C2=O)cn1 [Example 1117, 5-(3-(6-(4-isopropyl-4H-1,2,4-triazol-3-yl)pyridin-2-yl)-2-oxoimidazolidin-1-yl)-N-(3-methoxypropyl)pyridine-2-carboxamide] | < 100 nM
CC(C)n1cnnc1-c1cccc(N2CCN(c3ccc(N4CCC(S(C)(=O)=O)CC4)nc3)C2=O)n1 [Example 1120, 1-(6-(4-isopropyl-4H-1,2,4-triazol-3-yl)pyridin-2-yl)-3-(6-(4-(methylsulfonyl)piperidin-1-yl)pyridin-3-yl)imidazolidin-2-one] | < 100 nM
CC(C)n1cnnc1-c1cccc(N2CCN(c3ccc(N4CCC(N(C)C)CC4)nc3)C2=O)n1 [Example 1121, 1-(6-(4-(dimethylamino)piperidin-1-yl)pyridin-3-yl)-3-(6-(4-isopropyl-4H-1,2,4-triazol-3-yl)pyridin-2-yl)imidazolidin-2-one] | < 100 nM
CNC(=O)C1CN(c2ccc(N3CCN(c4cccc(-c5nncn5C(C)C)n4)C3=O)cn2)C1 [Example 1122, 1-(5-(3-(6-(4-isopropyl-4H-1,2,4-triazol-3-yl)pyridin-2-yl)-2-oxoimidazolidin-1-yl)pyridin-2-yl)-N-methylazetidine-3-carboxamide] | < 100 nM
CNC(=O)C1CCN(C(C)c2ccc(N3CCN(c4cccc(-c5nncn5C(C)C)n4)C3=O)cc2)CC1 (centres unmarked) [Example 1127, 1-(1-(4-(3-(6-(4-isopropyl-4H-1,2,4-triazol-3-yl)pyridin-2-yl)-2-oxoimidazolidin-1-yl)phenyl)ethyl)-N-methylpiperidine-4-carboxamide] | < 100 nM
CC(C)n1cnnc1-c1cccc(N2CCN(c3ccnc(N4CCOCC4)c3)C2=O)n1 [Example 1132, 1-(6-(4-isopropyl-4H-1,2,4-triazol-3-yl)pyridin-2-yl)-3-(2-morpholinopyridin-4-yl)imidazolidin-2-one] | > 1000 nM

The next lines start with the values.

IC50 | SMILES
< 100 nM | CC(C)n1cnnc1-c1cccc(N2CCN(c3ccc(F)c(C4CC4)c3)C2=O)n1 [Example 1060, 1-(3-cyclopropyl-4-fluorophenyl)-3-(6-(4-isopropyl-4H-1,2,4-triazol-3-yl)pyridin-2-yl)imidazolidin-2-one]
< 100 nM | CC(C)n1cnnc1-c1cccc(N2CCN(c3ccc(N4CCC(C)(C)CC4)cc3)C2=O)n1 [Example 1070, 1-(6-(4-isopropyl-4H-1,2,4-triazol-3-yl)pyridin-2-yl)-3-(4-(4,4-dimethylpiperidin-1-yl)phenyl)imidazolidin-2-one]
< 100 nM | Cc1cc(N2CCN(c3cccc(-c4nncn4C(C)C)n3)C2=O)ccc1N1CCOCC1 [Example 1079, 1-(6-(4-isopropyl-4H-1,2,4-triazol-3-yl)pyridin-2-yl)-3-(3-methyl-4-morpholinophenyl)imidazolidin-2-one]
< 100 nM | CC(C)n1cnnc1-c1cccc(N2CCN(c3ccc(N4[C@H](C)COC[C@H]4C)cc3)C2=O)n1 [Example 1086, 1-(6-(4-isopropyl-4H-1,2,4-triazol-3-yl)pyridin-2-yl)-3-(4-((3R,5R)-3,5-dimethylmorpholino)phenyl)imidazolidin-2-one]
< 100 nM | CC(C)n1cnnc1-c1cccc(N2CCN(c3ccc(N4CC(O)(C(C)C)C4)cc3)C2=O)n1 [Example 1089, 1-(4-(3-hydroxy-3-isopropylazetidin-1-yl)phenyl)-3-(6-(4-isopropyl-4H-1,2,4-triazol-3-yl)pyridin-2-yl)imidazolidin-2-one]
< 100 nM | CC(C)n1cnnc1-c1cccc(N2CCN(C)C2=O)n1 [Example 1099, 1-(6-(4-isopropyl-4H-1,2,4-triazol-3-yl)pyridin-2-yl)-3-methylimidazolidin-2-one]
< 100 nM | CC(C)n1cnnc1-c1cccc(N2CCN(c3ccc(N4CCCC4)cc3)C2=O)n1 [Example 1100, 1-(6-(4-isopropyl-4H-1,2,4-triazol-3-yl)pyridin-2-yl)-3-(4-(pyrrolidin-1-yl)phenyl)imidazolidin-2-one]
< 100 nM | CC(C)n1cnnc1-c1cccc(N2CCN(c3cnc(S(C)(=O)=O)nc3)C2=O)n1 [Example 1102, 1-(6-(4-isopropyl-4H-1,2,4-triazol-3-yl)pyridin-2-yl)-3-(2-(methylsulfonyl)pyrimidin-5-yl)imidazolidin-2-one]
< 50 nM | CNC(=O)C1CCN(c2ccc(N3CCN(c4cccc(-c5nncn5C(C)C)n4)C3=O)cn2)C1 (centres unmarked) [Example 1119, 1-(5-(3-(6-(4-isopropyl-4H-1,2,4-triazol-3-yl)pyridin-2-yl)-2-oxoimidazolidin-1-yl)pyridin-2-yl)-N-methylpyrrolidine-3-carboxamide]
